The text below walks through data of ChEMBL document CHEMBL4616595, “Targeted suppression of metastasis regulatory transcription factor SOX2 in various cancer cell lines using a sequence-specific designer pyrrole-imidazole polyamide” (Bioorg Med Chem, 2020).

Activity calls are given as the source filed them. No cut-off for these calls is given here.

The test system of data set [1] is SW-620. The data set is described as follows: Cell cycle arrest in human SW620 cells assessed as reduction in accumulation at S phase at 2 uM to 5 uM after 48 hrs by propidium iodide staining based flow cytometry analysis. It is filed as functional.
The subject of data set [2] is SOX2 promoter DNA. Kind of data set: Binding affinity to SOX2 promoter 5'-CTTTGTT-3' DNA in human SW620 cells assessed as up regulation of CDH1 mRNA expression at 2 uM incubated for 48 hrs by qRT-PCR analysis. The data set is classed as cell-based. To be noted: SW-620. (In general: Quantitative PCR measures a nucleic acid by following its amplification.)
Data set [3] has as its system SW-620. The data set is described as follows: Cell cycle arrest in human SW620 cells assessed as reduction in accumulation at G2/M phase at 2 uM to 5 uM after 48 hrs by propidium iodide staining based flow cytometry analysis. The data set is classed as functional.
Data set [4] concerns SOX2 promoter DNA. The data set is described as follows: Binding affinity to SOX2 promoter 5'-CTTTGTT-3' DNA in human SW620 cells assessed as downregulation beta-catenin mRNA expression incubated for 48 hrs by qRT-PCR analysis. The data set is classed as cell-based. As to conditions: SW-620.
Data set [5] concerns MKN-45. The data set is described as follows: Antiproliferative activity against human MKN45 cells assessed as inhibition of cell proliferation incubated for 48 hrs by [3H]thymidine incorporation based scintillation counting method. The data set is classed as functional. (Dividing cells build labelled thymidine or BrdU into new DNA.)
Data set [6] deals with SW-620. Kind of data set: Antiinvasive activity in human SW620 cells assessed as reduction in cell invasion at 5 uM incubated for 72 hrs by crystal violet staining based assay relative to untreated control. The data set is classed as functional.
For data set [7], the system named is SOX2 promoter DNA. Kind of data set: Binding affinity to SOX2 promoter 5'-CTTTGTT-3' DNA in human MKN45 cells assessed as reduction in SOX2 mRNA expression incubated for 48 hrs by qRT-PCR analysis. It is filed as cell-based. As to conditions: MKN-45.
Data set [8] deals with MCF7. The data set is described as follows: Antiproliferative activity against human MCF7 cells assessed as inhibition of cell proliferation incubated for 48 hrs by [3H]thymidine incorporation based scintillation counting method. The data set is classed as functional.
For data set [9], the system named is SW-620. The data set is described as follows: Antiproliferative activity against human SW620 cells assessed as inhibition of cell proliferation incubated for 48 hrs by [3H]thymidine incorporation based scintillation counting method. The data set is classed as functional.
Data set [10] deals with SOX2 promoter DNA. The data set is described as follows: Binding affinity to SOX2 promoter 5'-CTTTGTT-3' DNA in human SW620 cells assessed as upregulation of GSK3-beta mRNA expression incubated for 48 hrs by qRT-PCR analysis. It is filed as cell-based. As to conditions: SW-620.
Data set [11] concerns NHDF. Kind of data set: Cytotoxicity against HDF cells assessed as effect on cell viability measured after 48 hrs by MTT assay. It is filed as cell-based. As to conditions: human. For orientation: Tetrazolium assays rely on reduction of a dye to a coloured formazan, in cell work by metabolically active cells.
Data set [12] relates to B16-F10. Kind of data set: Anti-metastasis activity in mouse B16/F10 cells implanted in C57BL/6N mouse assessed as reduction in lung metastatic nodules at 1 mg/kg ip dosed every third day and measured on day 21 relative to untreated control. The data set is classed as functional.
Data set [13] has as its system SOX2 promoter DNA. Kind of data set: Binding affinity to SOX2 promoter 5'-CTTTGTT-3' DNA (unknown origin) transfected in human SW620 cells at 2 to 10 uM incubated for 24 hrs by 6xO/s-Luc reporter gene based Steady-Glo luciferase assay. The data set is classed as cell-based. As to conditions: SW-620.
The test system of data set [14] is SOX2 promoter DNA. The data set is described as follows: Binding affinity to SOX2 promoter 5'-CTTTGTT-3' DNA in human SW620 cells assessed as down regulation of […] mRNA expression at 2 uM incubated for 48 hrs by qRT-PCR analysis. It is filed as cell-based. As to conditions: SW-620.
The subject of data set [15] is SW-620. The data set is described as follows: Cytotoxicity against human SW620 cells assessed as reduction in cell viability incubated for 48 hrs by MTT assay. The data set is classed as functional, cell-based.
The test system of data set [16] is SOX2 promoter DNA. The data set is described as follows: Binding affinity to SOX2 promoter 5'-CTTTGTT-3' DNA in human SW620 cells assessed as reduction in SOX2 protein level by measuring SOX2 level at 2 uM incubated for 48 hrs by immunostaining based FACS analysis (reference value: 55.9%). As to conditions: SW-620. More on the design: scale not given: the % may be the effect or the level left. The data set is classed as cell-based.

For data set [17], the system named is U2OS. The data set is described as follows: Cell cycle arrest in human U2OS cells assessed as reduction in accumulation at S phase at 2 uM to 5 uM after 48 hrs by propidium iodide staining based flow cytometry analysis. It is filed as functional.

`CC(=O)Nc1cc(C(=O)Nc2cc(C(=O)Nc3cc(C(=O)NCCC(=O)Nc4cn(C)c(C(=O)Nc5cc(C(=O)NCCCC(=O)Nc6cc(C(=O)Nc7cc(C(=O)NCCC(=O)Nc8cc(C(=O)Nc9cc(C(=O)Nc%10cn(C)c(C(=O)NCCCN(C)C)n%10)n(C)c9)n(C)c8)n(C)c7)n(C)c6)n(C)c5)n4)n(C)c3)n(C)c2)n(C)c1`: the result in data set [1], in data set [2], in [3], in [4], in [7] and in data set [10] was Active. The outcome in [13], in data set [14] and in data set [17] was Active. Besides, the inhibition result in [5], in data set [8] and in data set [9] was “Dose-dependent effect” throughout. Also, the “fold change (FC)” value in [6] and in data set [12] was 4 in each case. In addition, the Activity result was “Non-Toxic” in data set [11], “Dose-dependent effect” in data set [15] and 37.4% in data set [16].
